In ChEMBL document CHEMBL4715865, “Antimyeloma Potential of Caffeic Acid Phenethyl Ester and Its Analogues through Sp1 Mediated Downregulation of IKZF1-IRF4-MYC Axis” (J Nat Prod, 2020):
Activity calls are given as the source filed them. The calls are words filed in the database; no cut-off is given here.

Columns and labels:
[1] = Growth inhibition of human KMM-1 cells after 48 hrs by PrestoBlue cell viability assay; format: functional, cell-based; conditions: KMM-1, 48 h
[2] = Growth inhibition of human MM1.R cells after 48 hrs by PrestoBlue cell viability assay; format: functional; conditions: MM.1R
JJN-3 [3] = assay: Down regulation of SP1 protein expression in human JJN-3 cells at 10 uM after 48 hrs by immunoblotting analysis; format: functional, cell-based
MM.1R [4] = assay: Down regulation of SP1 protein expression in human MM1.R cells at 10 uM after 48 hrs by immunoblotting analysis; format: functional, cell-based
[5] = Potency index, ratio of lenalidomide IC50 to test compound IC50 for growth inhibition of human KMM-1 cells; format: functional
[6] = Induction of apoptosis in human KMM-1 cells assessed as apoptotic cells at 10 uM after 72 hrs by Annexin V/PropidiumIodide staining based flow cytometric analysis relative to control; format: functional
JJN-3 [7] = assay: Growth inhibition of human JJN-3 cells after 48 hrs by PrestoBlue cell viability assay; format: functional, cell-based; conditions: JJN-3, 48 h
JJN-3 [8] = assay: Induction of apoptosis in human JJN-3 cells assessed as increase in cleaved caspace-8 protein expression at 10 to 50 uM after 48 hrs by […]; format: functional, cell-based; conditions: dose 10-50 µM
MM.1R [9] = assay: Induction of apoptosis in human MM1.R cells assessed as increase in cleaved caspace-8 protein expression at 10 uM after 48 hrs by immunoblotting analysis; format: functional, cell-based
JJN-3 [10] = assay: Down regulation of IKZF1 protein expression in human JJN-3 cells at 10 to 100 uM after 48 hrs in presence of TMP by immunoblotting analysis; format: functional, cell-based; conditions: dose 10-100 µM
MM.1R [11] = assay: Induction of apoptosis in human MM1.R cells at 10 uM after 48 hrs by Annexin V/Propidium Iodide flow cytometric analysis; format: functional, cell-based
JJN-3 [12] = assay: Down regulation of IRF4 protein expression in human JJN-3 cells at 10 to 100 uM after 48 hrs in presence of TMP by immunoblotting analysis; format: functional, cell-based; conditions: dose 10-100 µM
MM.1R [13] = assay: Down regulation of MYC protein expression in human MM1.R cells at 5 to 10 uM after 48 hrs by immunoblotting analysis; format: functional, cell-based; conditions: dose 5-10 µM
[14] = (§1) Growth inhibition of human KMM-1 cells at 10 uM after 48 hrs by PrestoBlue cell viability assay relative to control; format: functional; conditions: read-out: GI
MM.1R [15] = assay: Down regulation of IKZF1 protein expression in human MM1.R cells at 5 to 10 uM after 48 hrs by immunoblotting analysis; format: functional, cell-based; conditions: dose 5-10 µM
MM.1R [16] = assay: Down regulation of IKZF3 protein expression in human MM1.R cells at 5 to 10 uM after 48 hrs by immunoblotting analysis; format: functional, cell-based; conditions: dose 5-10 µM
[17] = Induction of apoptosis in human MM1.R cells assessed as apoptotic cells at 10 uM after 72 hrs by Annexin V/PropidiumIodide staining based flow cytometric analysis relative to control; format: functional, MM.1R
KMM-1 [18] = assay: as §1; format: functional
[19] = Growth inhibition of human KMM-1 cells at 50 uM after 48 hrs by PrestoBlue cell viability assay relative to control; format: functional; conditions: read-out: GI
[20] = Induction of apoptosis in human KMM-1 cells assessed as necrotic cells at 10 uM after 72 hrs by Annexin V/PropidiumIodide staining based flow cytometric analysis (reference value: 8 +/-1%); format: functional
MM.1R [21] = assay: Induction of apoptosis in human MM1.R cells assessed as increase in cleaved caspace-8 protein expression at 5 to 25 uM after 48 hrs by immunoblotting analysis; format: functional, cell-based; conditions: dose 5-25 µM
[22] = Growth inhibition of human KMM-1 cells at 25 uM after 48 hrs by PrestoBlue cell viability assay relative to control; format: functional; conditions: read-out: GI
KMM-1 [23] = assay: Down regulation of IRF4 mRNA expression in human KMM-1 cells at 50 uM incubated for 48 hrs by 48 hrs by RT-PCR analysis; format: functional, cell-based
[24] = Induction of apoptosis in human KMM-1 cells assessed as early apoptotic cells at 25 uM after 72 hrs by Annexin V/PropidiumIodide staining based flow cytometric analysis (reference value: 1 +/- 0.4%); format: functional
[25] = Induction of apoptosis in human KMM-1 cells assessed as late apoptotic cells at 25 uM after 72 hrs by Annexin V/PropidiumIodide staining based flow cytometric analysis (reference value: 4 +/- 0.5%); format: functional
JJN-3 [26] = assay: Down regulation of IKZF1 protein expression in human JJN-3 cells at 50 uM after 48 hrs by immunoblotting analysis; format: functional, cell-based
[27] = Induction of apoptosis in human KMM-1 cells assessed as increase in cleaved caspace-3 expression at 50 uM after 48 hrs by immunoblotting analysis; format: functional
[28] = Induction of apoptosis in human KMM-1 cells assessed as viable cells at 25 uM after 72 hrs by Annexin V/PropidiumIodide staining based flow cytometric analysis (reference value: 87 +/- 1%); format: functional; conditions: read-out: Activity
[29] = Down regulation of IRF4 protein expression in human KMM-1 cells at 50 uM incubated for 48 hrs by 48 hrs by immunoblotting analysis relative to control; format: functional
B cell = assay: Cytotoxicity against human naive B cells assessed as reduction in cll viability at 25 to 50 uM after 48 hrs by PrestoBlue cell viability assay; format: cell-based; conditions: dose 25-50 µM
[30] = Induction of apoptosis in human KMM-1 cells assessed as early apoptotic cells at 10 uM after 72 hrs by Annexin V/PropidiumIodide staining based flow cytometric analysis (reference value: 1 +/- 0.4%); format: functional
MM.1R [31] = assay: Down regulation of SP1 protein expression in human MM1.R cells at 25 uM after 48 hrs by immunoblotting analysis; format: functional, cell-based
KMM-1 [32] = assay: Down regulation of OCT2 protein expression in human KMM-1 cells at 50 uM after 48 hrs by immunoblotting analysis; format: functional, cell-based
[33] = Induction of apoptosis in human KMM-1 cells assessed as viable cells at 10 uM after 72 hrs by Annexin V/PropidiumIodide staining based flow cytometric analysis (reference value: 87 +/- 1%); format: functional; conditions: read-out: Activity
[34] = Cytotoxicity against human Mononuclear cells assessed as reduction in cll viability at 25 to 50 uM after 48 hrs by PrestoBlue cell viability assay; format: cell-based; conditions: mononuclear cell line, dose 25-50 µM
[35] = Induction of apoptosis in human KMM-1 cells assessed as necrotic cells at 25 uM after 72 hrs by Annexin V/PropidiumIodide staining based flow cytometric analysis (reference value: 8 +/-1%); format: functional
JJN-3 [36] = assay: Down regulation of IRF4 protein expression in human JJN-3 cells at 50 uM after 48 hrs by immunoblotting analysis; format: functional, cell-based
KMM-1 [37] = assay: Down regulation of cyclin D3 expression in human KMM-1 cells after 48 hrs by immunoblotting analysis; format: functional, cell-based; conditions: dose 5-50 µM
JJN-3 [38] = assay: Down regulation of SP1 protein expression in human JJN-3 cells at 25 uM after 48 hrs by immunoblotting analysis; format: functional, cell-based
KMM-1 [39] = assay: Growth inhibition of human KMM-1 cells at 1 to 100 uM after 72 hrs by PrestoBlue cell viability assay; format: functional, cell-based; conditions: dose 1-100 µM
KMM-1 [40] = assay: Down regulation of Bob-1 protein expression in human KMM-1 cells at 50 uM after 48 hrs by immunoblotting analysis; format: functional, cell-based
[41] = Induction of apoptosis in human KMM-1 cells assessed as late apoptotic cells at 10 uM after 72 hrs by Annexin V/PropidiumIodide staining based flow cytometric analysis (reference value: 4 +/- 0.5%); format: functional
MM.1R [42] = assay: Down regulation of MYC protein expression in human MM1.R cells at 10 uM after 48 hrs by immunoblotting analysis; format: functional, cell-based

O=C(/C=C/c1cc(O)ccc1O)OCCCc1ccccc1
IC50 [1]: 1.9 µM
IC50 [2]: 0.6 µM
Activity (JJN-3 [3]): Active
Activity (MM.1R [4]): Active
Ratio IC50 [5]: 12
Activity [6]: 64.5%
IC50 (JJN-3 [7]): 3.9 µM
Activity (JJN-3 [8]): Active
Activity (MM.1R [9]): Active
Activity (JJN-3 [10]): Active
Activity (MM.1R [11]): Active
Activity (JJN-3 [12]): Active
Activity (MM.1R [13]): Active
inhibition of growth at 10 µM [14]: 89.7%
Activity (MM.1R [15]): Active
Activity (MM.1R [16]): Active
Activity [17]: 54%

O=C(/C=C/c1ccc(O)cc1O)OCCCc1ccccc1
growth inhibition (GI) (KMM-1 [18]): inactive

O=C(/C=C/c1ccc(O)c(O)c1)OCCCc1ccccc1
IC50 [1]: 12 µM
inhibition of growth at 50 µM [19]: 80%
IC50 [2]: 4.9 µM
Activity [20]: 27%
Activity (MM.1R [21]): Active
inhibition of growth at 25 µM [22]: 58.3%
Activity (KMM-1 [23]): Active
Activity [6]: 40.4%
Activity [24]: 7%
IC50 (JJN-3 [7]): 6.7 µM
Activity [25]: 17.2%
Activity (JJN-3 [26]): Active
fold change (FC) [27]: 2.9
Activity (MM.1R [11]): Active
viability at 25 µM [28]: 32%
Activity [29]: 62%
Activity (B cell): Non-Toxic
Activity [30]: 4%
Activity (MM.1R [31]): Active
Activity (KMM-1 [32]): Active
inhibition of growth at 10 µM [14]: 28%
viability at 10 µM [33]: 55%
Activity [34]: Non-Toxic
Activity [35]: 43%
Activity (JJN-3 [36]): Active
Activity (KMM-1 [37]): Dose-dependent effect
Activity [17]: 30%
Activity (JJN-3 [38]): Active
growth inhibition (GI) (KMM-1 [39]): Active
Activity (KMM-1 [40]): Active
Activity [41]: 14%

Oc1ccc(/C=C/COCCCc2ccccc2)cc1O
IC50 [1]: 6.6 µM
IC50 [2]: 2 µM
Activity (MM.1R [4]): inactive
Ratio IC50 [5]: 6.5
Activity (MM.1R [42]): inactive
IC50 (JJN-3 [7]): 14 µM
Activity (MM.1R [9]): Active
